This passage reports agonist character and Cmax results from US20210379066A1, “COMBINATIONS OF POSITIVE ALLOSTERIC MODULATORS AND NICOTINIC ACETYLCHOLINE RECEPTOR AGONISTS FOR TREATING OCULAR CONDITIONS” (Oyster Point Pharma, Inc., priority 2018, published 2021).

The target of series [1] is T1, human nAChR alpha3alpha5beta4 (Homo sapiens, UniProt P30532+P30926+P32297).
T1 construct: expressed in transfected cells; host or cells: Xenopus laevis oocytes (cDNA injection)
The experiment in a line: Agonist activity, two-electrode voltage clamp in Xenopus oocytes (Examples 2 and 5). The settings on record: versus ACh response. Type of series: cell-based. As to the method: (§1) All experiments were carried out at human nAChRs expressed in Xenopus oocytes using the method of cDNA expression. Xenopus oocytes were prepared and injected using standard procedures.
(§2) Briefly, ovaries were harvested from Xenopus Laevis females that have been deeply anesthetized by cooling at 4° C. and Tricaine methanesulfonate (MS-222 at a concentration of 150 mg/L) in sodium bicarbonate (300 mg/L). Once anesthetized the animal was decapitated and pithed following the rules of animal rights from the Geneva canton. A small piece of ovary was isolated for immediate preparation while the remaining part was placed at 4° C. in a sterile Barth solution containing in mM NaCl 88, KCl 1, NaHCO32.4, HEPES 10, MgSO4.7H2O 0.82, Ca(NO3)2.4H2O 0.33, CaCl2.6H2O 0.41, at pH 7.4, and supplemented with 20 μg/ml of kanamycin, 100 unit/ml penicillin. All recordings were performed at 18° C. and cells superfused with OR2 medium containing in mM: NaCl 88, KCl 2.5, HEPES 5, CaCl2.2H2O 1.8, MgCl2.6H2O 1, pH 7.4.
(§3) Currents evoked by ACh or other agonists were recorded using an automated process equipped with standard two-electrode voltage-clamp configuration (TEVC). Data were captured and analyzed using a HiQScreen proprietary data acquisition and analysis software running under Matlab (Mathworks Inc.).
(§4) See Example 1. […] The test concentration of acetylcholine chloride was 1280 micromolar.
(§5) Injections of cDNAs encoding for the human alpha3beta4, alpha3alpha5beta4, alpha4beta2, and alpha7 were performed in at least 95 oocytes were performed using a proprietary automated injection and receptor expression examined at least two days later. Oocytes were poked with two electrodes and their membrane potential maintained, unless indicated, at −80 mV throughout the experiment.
(§6) A protocol to determine agonistic activity in the oocytes expressing the nAChRs was developed. The cells were exposed to a series of increasing concentrations of a compound agonist for 10 seconds each at two minute intervals. The current evoked from exposure to the agonist at each concentration was recorded. For oocytes expressing alpha7 nAChRs, exposure to the agonist was reduced to 5 seconds. This process was repeated for each agonist tested against each type of nAChR expressing cell.
(§7) To evaluate the agonistic properties of compound 1 hemi-galactarate dihydrate a protocol of brief exposures to a series of growing concentrations of compound 1 hemi-galactarate dihydrate was used.
(§8) Agonist Preparation: See Example 1. […] The test concentration of acetylcholine chloride was 1280 micromolar.
(§9) Experimental Procedures: Injections of cDNAs encoding for the human alpha3beta4, alpha3alpha5beta4, alpha4beta2, alpha4alpha6beta2, and alpha7 were performed in at least 95 oocytes using a proprietary automated injection device. Cellular receptor expression was examined at least two days later. Oocytes were poked with two electrodes and their membrane potential maintained, unless indicated, at −80 mV throughout the experiment.
as §6, with “developed. Oocytes expressing a nAChR subtype were exposed to a brief test pulse of acetylcholine (1280 micromolar) while the holding current and response was evaluated. Cells displaying robust currents were washed for 90 seconds.” for “developed.”, “were then” for “were”, “nAChR” for “compound”, “intervals. The nAChR agonist test concentrations were 0.1, 0.3, 1, 3, 10, 30, 100, 300 (micromolar).” for “intervals.”
A general note: Two-electrode voltage clamp is typically applied to oocytes expressing channels or transporters.

The target in a further series is T2, human nAChR alpha3beta4 (Homo sapiens, UniProt P30926+P32297).
T2 construct: expressed in transfected cells; host or cells: Xenopus laevis oocytes (cDNA injection)
The description is as above. It counts as cell-based. The settings on record: versus ACh response. As to the method:
as §1, §2, §3, §4, §5, §6, §7, §8, §9
as §6, with “developed. Oocytes expressing a nAChR subtype were exposed to a brief test pulse of acetylcholine (1280 micromolar) while the holding current and response was evaluated. Cells displaying robust currents were washed for 90 seconds.” for “developed.”, “were then” for “were”, “nAChR” for “compound”, “intervals. The nAChR agonist test concentrations were 0.1, 0.3, 1, 3, 10, 30, 100, 300 (micromolar).” for “intervals.”

Another series addresses T3, human nAChR alpha4beta2 (Homo sapiens, UniProt P17787+P43681).
T3 construct: expressed in transfected cells; host or cells: Xenopus laevis oocytes (cDNA injection)
The description is as above. The settings on record: versus ACh response. It counts as cell-based. As to the method: as §1, §2, §3, §4, §5, §6, §7, §8, §9
as §6, with “developed. Oocytes expressing a nAChR subtype were exposed to a brief test pulse of acetylcholine (1280 micromolar) while the holding current and response was evaluated. Cells displaying robust currents were washed for 90 seconds.” for “developed.”, “were then” for “were”, “nAChR” for “compound”, “intervals. The nAChR agonist test concentrations were 0.1, 0.3, 1, 3, 10, 30, 100, 300 (micromolar).” for “intervals.”

The target in the next series is T4, human nAChR alpha7 (Homo sapiens, UniProt P36544).
T4 construct: expressed in transfected cells; host or cells: Xenopus laevis oocytes (cDNA injection)
The description is as above. The settings on record: versus ACh response. Type of series: cell-based. The protocol:
as §1, §2, §3, §4, §5, §6, §7, §8, §9
as §6, with “developed. Oocytes expressing a nAChR subtype were exposed to a brief test pulse of acetylcholine (1280 micromolar) while the holding current and response was evaluated. Cells displaying robust currents were washed for 90 seconds.” for “developed.”, “were then” for “were”, “nAChR” for “compound”, “intervals. The nAChR agonist test concentrations were 0.1, 0.3, 1, 3, 10, 30, 100, 300 (micromolar).” for “intervals.”

Series [2] is described as follows: Measured plasma Cmax after nasal spray (Example 4). It counts as in vivo. The settings on record: human, inhaled or intranasal; blood plasma of 30 individuals; nasal spray of 1.1% compound 1 free base (2.0% hemi-galactarate dihydrate), 200 microliters total, about 2216 micrograms free base. As to the method:
A dose of a nAChR agonist, or a pharmaceutically acceptable salt thereof, is administered to an individual. Examples of dose and volume ranges are described herein.
A blood sample is collected from an individual before administration of a nAChR agonist, or a pharmaceutically acceptable salt thereof. After administration of the nAChR agonist, or a pharmaceutically acceptable salt thereof, to the individual, multiple blood samples are collected over a period of time at certain intervals. For instance, blood samples are collected at 10 minutes, 20 minutes, 30 minutes, 1 hour, 2 hours, 3 hours, and 4 hours after administration of the nAChR agonist, or a pharmaceutically acceptable salt thereof.
Blood samples (4 mL in K2EDTA tubes) are collected from an arm vein into Vacutainer tubes containing K2EDTA. […]
All pharmacokinetic (PK) analyses and reporting are performed according to generally accepted standard operating procedures and protocol specifications. Pharmacokinetic parameters are calculated by use of generally accepted software tools, for instance Phoenix® WinNonlin® 8.0.
A plasma concentration time plot is created by plotting the concentration of the nAChR agonist, or pharmaceutically acceptable salt thereof, as a function of time. Cmax is calculated by inspection of an individual's plasma concentration time plot. […] The Cmax is calculated for an individual after a treatment. […]

The structures appear in SMILES notation.

T1 sequence (P32297 32-505): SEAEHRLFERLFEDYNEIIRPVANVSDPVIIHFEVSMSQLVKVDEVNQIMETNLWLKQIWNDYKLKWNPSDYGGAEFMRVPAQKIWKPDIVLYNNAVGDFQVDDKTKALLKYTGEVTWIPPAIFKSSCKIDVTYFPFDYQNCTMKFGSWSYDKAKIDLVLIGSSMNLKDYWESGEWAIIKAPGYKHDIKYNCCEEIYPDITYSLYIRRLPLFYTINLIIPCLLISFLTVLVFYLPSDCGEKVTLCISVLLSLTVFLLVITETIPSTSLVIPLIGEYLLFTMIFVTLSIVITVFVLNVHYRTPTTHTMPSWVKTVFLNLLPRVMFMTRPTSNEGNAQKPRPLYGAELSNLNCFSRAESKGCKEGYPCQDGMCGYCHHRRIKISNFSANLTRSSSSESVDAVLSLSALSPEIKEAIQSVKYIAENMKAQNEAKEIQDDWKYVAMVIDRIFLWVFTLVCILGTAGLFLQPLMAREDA
T1 sequence (P30532 23-468): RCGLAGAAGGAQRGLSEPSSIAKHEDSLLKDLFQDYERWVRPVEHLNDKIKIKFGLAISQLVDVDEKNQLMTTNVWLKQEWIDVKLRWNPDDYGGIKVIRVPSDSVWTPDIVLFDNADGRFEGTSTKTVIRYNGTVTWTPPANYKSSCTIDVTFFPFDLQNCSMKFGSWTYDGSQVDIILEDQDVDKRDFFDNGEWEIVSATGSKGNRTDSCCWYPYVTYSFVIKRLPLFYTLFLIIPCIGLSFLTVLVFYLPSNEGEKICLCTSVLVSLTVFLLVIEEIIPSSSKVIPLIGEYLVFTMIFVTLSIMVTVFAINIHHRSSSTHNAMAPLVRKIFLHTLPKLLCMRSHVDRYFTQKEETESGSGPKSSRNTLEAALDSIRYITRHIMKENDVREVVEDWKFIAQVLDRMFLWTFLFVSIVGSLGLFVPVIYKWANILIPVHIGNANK
T1 sequence (P30926 22-498): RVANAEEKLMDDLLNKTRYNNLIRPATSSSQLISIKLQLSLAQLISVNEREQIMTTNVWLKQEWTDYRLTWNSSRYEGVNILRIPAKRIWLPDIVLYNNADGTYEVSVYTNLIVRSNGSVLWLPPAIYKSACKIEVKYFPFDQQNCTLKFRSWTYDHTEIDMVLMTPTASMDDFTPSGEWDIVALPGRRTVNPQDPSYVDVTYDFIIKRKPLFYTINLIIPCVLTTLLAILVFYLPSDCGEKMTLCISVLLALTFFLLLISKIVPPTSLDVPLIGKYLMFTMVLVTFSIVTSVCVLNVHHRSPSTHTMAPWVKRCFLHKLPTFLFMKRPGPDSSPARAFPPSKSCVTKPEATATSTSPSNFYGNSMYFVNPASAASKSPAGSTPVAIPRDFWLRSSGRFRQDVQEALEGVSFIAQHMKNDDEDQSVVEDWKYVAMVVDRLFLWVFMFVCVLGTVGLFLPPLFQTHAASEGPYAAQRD
T2 sequence (P32297 32-505): as the sequence (P32297 32-505) above
T2 sequence (P30926 22-498): as the sequence (P30926 22-498) above
T3 sequence (P43681 29-627 limits assumed): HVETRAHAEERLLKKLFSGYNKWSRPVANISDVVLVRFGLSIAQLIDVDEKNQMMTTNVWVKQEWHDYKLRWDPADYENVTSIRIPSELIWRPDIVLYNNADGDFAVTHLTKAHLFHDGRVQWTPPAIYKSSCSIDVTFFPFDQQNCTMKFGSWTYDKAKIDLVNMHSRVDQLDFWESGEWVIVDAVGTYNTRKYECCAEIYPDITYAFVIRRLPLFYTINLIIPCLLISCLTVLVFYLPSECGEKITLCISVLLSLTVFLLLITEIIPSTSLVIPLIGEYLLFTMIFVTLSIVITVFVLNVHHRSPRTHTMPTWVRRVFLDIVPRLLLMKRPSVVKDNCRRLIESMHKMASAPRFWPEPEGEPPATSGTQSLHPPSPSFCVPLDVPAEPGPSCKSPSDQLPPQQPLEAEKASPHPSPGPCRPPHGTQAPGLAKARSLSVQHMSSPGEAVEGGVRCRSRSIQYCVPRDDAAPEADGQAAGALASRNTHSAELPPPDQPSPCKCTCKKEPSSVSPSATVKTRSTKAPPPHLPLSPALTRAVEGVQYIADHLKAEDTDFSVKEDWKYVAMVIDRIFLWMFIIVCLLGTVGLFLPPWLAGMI
T3 sequence (P17787 26-502): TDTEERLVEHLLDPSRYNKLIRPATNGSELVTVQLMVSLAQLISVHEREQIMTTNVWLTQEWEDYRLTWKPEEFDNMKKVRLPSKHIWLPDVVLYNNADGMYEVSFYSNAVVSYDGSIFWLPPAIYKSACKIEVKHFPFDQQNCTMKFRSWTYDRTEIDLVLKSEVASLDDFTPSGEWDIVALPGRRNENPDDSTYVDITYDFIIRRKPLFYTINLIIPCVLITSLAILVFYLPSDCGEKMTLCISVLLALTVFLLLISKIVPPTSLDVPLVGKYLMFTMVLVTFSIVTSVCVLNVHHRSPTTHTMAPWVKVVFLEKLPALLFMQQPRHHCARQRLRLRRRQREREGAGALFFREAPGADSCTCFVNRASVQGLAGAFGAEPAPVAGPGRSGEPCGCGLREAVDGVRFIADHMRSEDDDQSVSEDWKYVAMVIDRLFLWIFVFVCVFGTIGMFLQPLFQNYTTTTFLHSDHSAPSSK
T4 sequence (P36544 23-502): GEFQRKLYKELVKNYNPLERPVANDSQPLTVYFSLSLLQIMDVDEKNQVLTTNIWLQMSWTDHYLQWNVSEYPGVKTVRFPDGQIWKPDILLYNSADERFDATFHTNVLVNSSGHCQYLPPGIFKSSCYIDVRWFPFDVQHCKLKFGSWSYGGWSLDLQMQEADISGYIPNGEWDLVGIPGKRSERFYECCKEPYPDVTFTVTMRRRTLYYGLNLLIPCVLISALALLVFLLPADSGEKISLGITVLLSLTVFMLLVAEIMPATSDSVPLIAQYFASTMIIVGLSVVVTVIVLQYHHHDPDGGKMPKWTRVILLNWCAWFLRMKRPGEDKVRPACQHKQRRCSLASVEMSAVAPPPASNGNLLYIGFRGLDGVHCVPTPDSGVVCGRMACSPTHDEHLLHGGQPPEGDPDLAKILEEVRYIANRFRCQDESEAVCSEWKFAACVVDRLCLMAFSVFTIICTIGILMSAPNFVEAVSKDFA

For `C(=C\[C@H]1CCNC1)/c1cncnc1` [Compound 1, (R)-5-((E)-2-pyrrolidin-3-ylvinyl)pyrimidine], the agonist character result in series [1] is “full agonist”; at human nAChR alpha3beta4, “full agonist”; on human nAChR alpha4beta2 it was “full agonist”; at human nAChR alpha7, “weak partial agonist”. In addition, the maximum concentration (Cmax) (commonly the peak of the concentration-time curve) in series [2] was 2.92 ng/mL.
